From PMC2607046 (Journal of medicinal chemistry, 2008)

Columns and labels:
dopamine D3 receptor = dopamine D3 receptor (Rattus norvegicus, UniProt P19020); assay type: binding
dopamine D2L receptor = dopamine D2L receptor (Rattus norvegicus, UniProt P61169); assay type: binding
[1] = 35c (spacer length 4) relative to 35a (spacer length 2)

Chain of dopamine D3 receptor (P19020 whole entry): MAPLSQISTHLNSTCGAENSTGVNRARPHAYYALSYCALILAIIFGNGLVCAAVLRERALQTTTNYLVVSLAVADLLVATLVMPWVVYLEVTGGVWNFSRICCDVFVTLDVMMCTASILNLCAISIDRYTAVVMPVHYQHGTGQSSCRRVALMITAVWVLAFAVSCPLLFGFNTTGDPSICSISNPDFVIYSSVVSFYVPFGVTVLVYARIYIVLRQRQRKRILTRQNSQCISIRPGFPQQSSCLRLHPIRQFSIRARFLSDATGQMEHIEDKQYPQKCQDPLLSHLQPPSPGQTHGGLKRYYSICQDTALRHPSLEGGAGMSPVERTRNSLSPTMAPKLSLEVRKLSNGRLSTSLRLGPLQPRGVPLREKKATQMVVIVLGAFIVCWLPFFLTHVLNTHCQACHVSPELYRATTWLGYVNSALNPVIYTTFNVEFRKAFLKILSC
Chain of dopamine D2L receptor (P61169 whole entry): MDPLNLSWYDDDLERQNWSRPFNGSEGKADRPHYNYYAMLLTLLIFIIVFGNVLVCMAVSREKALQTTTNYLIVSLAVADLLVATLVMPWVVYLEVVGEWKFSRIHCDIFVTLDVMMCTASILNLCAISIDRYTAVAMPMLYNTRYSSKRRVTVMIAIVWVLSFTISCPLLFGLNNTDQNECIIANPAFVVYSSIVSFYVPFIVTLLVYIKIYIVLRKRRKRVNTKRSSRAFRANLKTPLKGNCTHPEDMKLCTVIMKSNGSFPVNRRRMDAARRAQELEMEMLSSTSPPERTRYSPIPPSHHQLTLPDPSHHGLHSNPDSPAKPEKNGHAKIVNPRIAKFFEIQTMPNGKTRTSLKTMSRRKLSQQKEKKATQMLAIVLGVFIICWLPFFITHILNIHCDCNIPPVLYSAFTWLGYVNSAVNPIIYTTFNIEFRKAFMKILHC

Oc1cccc2c1CC[C@H]1[C@H]2CCCN1CCN1CCN(c2ccccc2)CC1 (racemic) [(±)-8, (±)-trans-4-(2-(4-Phenylpiperazin-1-yl)ethyl)-1,2,3,4,4a,5,6,10b-octahydrobenzo[f]-quinolin-7-ol]
Ki (dopamine D3 receptor): 14.9 ± 4.3 nM

Oc1ccc2c(c1)C[C@H]1[C@@H](CCCN1CCCCN1CCN(c3ccccc3)CC1)C2 (racemic) [(±)-35c, (±)-trans-1-[4-(4-Phenylpiperazin-1-yl)butyl]-1,2,3,4,4a,5,10,10a-octahydrobenzo-[g]quinolin-8-ol]
gain in affinity for D2 receptor (dopamine D2L receptor; [1]): ~ 9 fold | gain in affinity for D3 receptor (dopamine D3 receptor; [1]): ~ 3 fold

CCCN(CCN1CCN(c2ccccc2)CC1)[C@H]1CCc2c(O)cccc2C1 [(−)-7]
difference in inhibition constants between enantiomers, D2L receptor (dopamine D2L receptor; (−)-7 versus its enantiomer (+)-7): ~ 9 fold
